Experiments:
[1] = Analgesic effect of SOS1 inhibitor combined with Tanezumab; assay type: in vivo
[2] = test system: NGF stimulated pERK1/2 activation in PC-12 cells; test: Tanezumab / SOS1 inhibitor combination in the NGF stimulated pERK1/2 PC-12 assay; assay type: cell-based, rat
Procedure: The combined inhibitory effect of a selective, small molecule SOS1 inhibitor and known antibody based NGF inhibitor, Anti-NGF was monitored via an HTRF readout measuring phosphorylation of ERK1/2 by NGF activation. All assays were performed in rat adrenal PC-12 cells (Merck) that had been serum-starved for a period of 24 hours in RPMI-1640 growth medium (Gibco) supplemented with 1% heat-inactivated horse serum (Merck), 0.5% heat-inactivated fetal bovine serum (FBS), 1% penicillin-streptomycin and 2 mM L-Glutamine unless specified otherwise. Reagents from the HTRF commercial kit (Cisbio) were prepared according to the manufacturer's instructions.
PC-12 cells were isolated from routine cellular culture and plated at an appropriate cell density (typically 25,000 cells per well) in 384-well plates for 24 hours under serum-starved conditions. Working preparations of varying Anti-NGF (Abcam) concentrations and a fixed NGF concentration were prepared in serum-starved media and pre-incubated for 30 minutes (37° C./5% CO2). […] A 2-hour incubation at room temperature was performed prior to fluorescence signal being measured in a microplate reader (PHERAstar FSX, BMG Labtech).
Percentage inhibition values were calculated per compound concentration by normalising the sample data to the high and low controls used within each plate (+/−250 ng/mL NGF respectively). […] Response data were then plotted against the molar logarithm for each SOS1 inhibitor compound concentration together with the determined fit results for display purposes. […] The mean percentage inhibition value calculated for both the top and bottom concentration of SOS1 inhibitor compound tested per Anti-NGF:NGF combination was extracted and compared in tabular form across the different Anti-NGF:NGF combinations tested.
The ability of an NGF inhibitor Tanezumab in combination with a SOS1 inhibitor to treat pain was measured in the Inhibition of Nerve Growth Factor (NGF) stimulated phospho-Extracellular Regulated Kinase 1 and 2 (pERK1/2) activation in the PC-12 cell line assay.

[3] = test system: knee osteoarthritis pain model; settings: rats, 10 mg/kg; cited from earlier work

## Tanezumab: an example of an anti-NGF antibody
[1]; 0.3 mg/kg Tanezumab in combination with low doses of a SOS1 inhibitor
  analgesic effect: significant analgesic effect
[1]; fixed dose SOS1 inhibitor, varied antibody dose
  increase in analgesia versus dose: efficacy is dose related
[2]; Tanezumab 50 nM in combination with SOS1 inhibitor 500 nM
  efficacy: ~96%
[2]; Tanezumab alone, 50 nM
  efficacy: 90%
[2]; tanezumab alone, 200 nM
  efficacy: 100%
[3]
  efficacy: shows efficacy

— patent publication US20250325572A1, “TREATMENTS FOR PAIN” (Sevenless Therapeutics Limited, priority 2022, published 2025)
